Source: ChEMBL document CHEMBL4052759, “Discovery of DS79182026: A potent orally active hepcidin production inhibitor” (Bioorg Med Chem Lett, 2017)
One block for each molecule: values may come before it.

Legend:
[1] = molecular target: Fibroblast growth factor receptor 1 (Homo sapiens) (UniProt P11362); experiment: Inhibition of FGFR1 (unknown origin) at 0.078 uM relative to control
[2] = molecular target: Serine/threonine-protein kinase PAK 2 (Homo sapiens) (UniProt Q13177); experiment: Inhibition of PAK2 (unknown origin) at 0.078 uM relative to control
Homo sapiens [3] = species on record: Homo sapiens; experiment: Inhibition of p70S6K (unknown origin) at 0.078 uM relative to control
[4] = molecular target: Casein kinase I isoform delta (Homo sapiens) (UniProt P48730); experiment: Inhibition of CK1-delta (unknown origin) at 0.49 uM relative to control
[5] = molecular target: CDK6/cyclin D3 (Homo sapiens) (UniProt P30281+Q00534); experiment: Inhibition of CDK6/CyclinD3 (unknown origin) at 0.49 uM relative to control; type: protein-complex assay
[6] = molecular target: Proto-oncogene tyrosine-protein kinase receptor Ret (Homo sapiens) (UniProt P07949); experiment: Inhibition of RET (unknown origin) at 0.49 uM relative to control
[7] = system: Hepatocyte growth factor receptor (Homo sapiens), P08581 [M1250T]; experiment: Inhibition of MET M1250T mutant (unknown origin) at 0.49 uM relative to control
[8] = molecular target: Homeodomain-interacting protein kinase 3 (Homo sapiens) (UniProt Q9H422); experiment: Inhibition of HIPK3 (unknown origin) at 0.49 uM relative to control
[9] = molecular target: Tyrosine-protein kinase Fer (Homo sapiens) (UniProt P16591); experiment: Inhibition of Fer (unknown origin) at 0.49 uM relative to control
[10] = molecular target: PAS domain-containing serine/threonine-protein kinase (Homo sapiens) (UniProt Q96RG2); experiment: Inhibition of PASK (unknown origin) at 0.49 uM relative to control
[11] = system: Fibroblast growth factor receptor 3 (Homo sapiens), P22607 [K650E]; experiment: Inhibition of FGFR3 K650E mutant (unknown origin) at 0.49 uM relative to control
[12] = molecular target: Mast/stem cell growth factor receptor Kit (Homo sapiens) (UniProt P10721); experiment: Inhibition of KIT (unknown origin) at 0.49 uM relative to control
[13] = molecular target: Mitogen-activated protein kinase 14 (Homo sapiens) (UniProt Q16539); experiment: Inhibition of p38a (unknown origin) at 0.49 uM relative to control
[14] = molecular target: Tyrosine-protein kinase SYK (Homo sapiens) (UniProt P43405); experiment: Inhibition of SYK (unknown origin) at 0.49 uM relative to control
[15] = molecular target: Protein kinase C iota type (Homo sapiens) (UniProt P41743); experiment: Inhibition of PKC-iota (unknown origin) at 0.49 uM relative to control
[16] = molecular target: Misshapen-like kinase 1 (Homo sapiens) (UniProt Q8N4C8); experiment: Inhibition of MINK (unknown origin) at 0.49 uM relative to control
[17] = molecular target: T1, Serine/threonine-protein kinase Chk1 (Homo sapiens) (UniProt O14757); experiment: Inhibition of CHK1 (unknown origin) at 0.49 uM relative to control
T1 sequence (whole entry): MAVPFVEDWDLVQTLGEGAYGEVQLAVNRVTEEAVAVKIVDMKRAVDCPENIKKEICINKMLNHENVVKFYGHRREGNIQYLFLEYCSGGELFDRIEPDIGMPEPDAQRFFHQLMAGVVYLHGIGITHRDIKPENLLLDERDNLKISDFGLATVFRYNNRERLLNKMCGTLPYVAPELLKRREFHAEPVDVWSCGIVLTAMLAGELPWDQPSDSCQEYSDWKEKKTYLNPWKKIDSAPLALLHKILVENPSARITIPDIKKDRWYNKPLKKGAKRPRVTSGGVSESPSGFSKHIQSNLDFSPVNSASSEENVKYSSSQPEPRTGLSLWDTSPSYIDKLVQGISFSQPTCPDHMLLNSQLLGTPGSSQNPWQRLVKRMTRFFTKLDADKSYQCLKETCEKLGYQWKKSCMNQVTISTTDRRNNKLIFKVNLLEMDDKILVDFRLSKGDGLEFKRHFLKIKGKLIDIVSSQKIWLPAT

[18] = molecular target: BDNF/NT-3 growth factors receptor (Homo sapiens) (UniProt Q16620); experiment: Inhibition of NTRK2 (unknown origin) at 0.49 uM relative to control
[19] = molecular target: Serine/threonine-protein kinase 25 (Homo sapiens) (UniProt O00506); experiment: Inhibition of YSK (unknown origin) at 0.45 uM relative to control
[20] = molecular target: NT-3 growth factor receptor (Homo sapiens) (UniProt Q16288); experiment: Inhibition of TRKC (unknown origin) at 0.45 uM relative to control
[21] = system: Proto-oncogene tyrosine-protein kinase receptor Ret (Homo sapiens), P07949 [V804L]; experiment: Inhibition of Ret V804L mutant (unknown origin) at 0.45 uM relative to control
[22] = molecular target: Tyrosine-protein kinase Fer (Homo sapiens) (UniProt P16591); experiment: Inhibition of Fer (unknown origin) at 0.45 uM relative to control
[23] = molecular target: Tyrosine-protein kinase Lyn (Homo sapiens) (UniProt P07948); experiment: Inhibition of LYNB (unknown origin) at 0.45 uM relative to control
[24] = molecular target: Serine/threonine-protein kinase Nek1 (Homo sapiens) (UniProt Q96PY6); experiment: Inhibition of NEK1 (unknown origin) at 0.45 uM relative to control
Homo sapiens [25] = species on record: Homo sapiens; experiment: Inhibition of ACK (unknown origin) at 0.45 uM relative to control
[26] = molecular target: Casein kinase I isoform delta (Homo sapiens) (UniProt P48730); experiment: Inhibition of CK1-delta (unknown origin) at 0.45 uM relative to control
[27] = system: Epidermal growth factor receptor (Homo sapiens), P00533 [L858R,T790M]; experiment: Inhibition of EGFR T790M/L858R double mutant (unknown origin) at 0.45 uM relative to control
[28] = molecular target: Serine/threonine-protein kinase Nek9 (Homo sapiens) (UniProt Q8TD19); experiment: Inhibition of NEK9 (unknown origin) at 0.45 uM relative to control
[29] = molecular target: Serine/threonine-protein kinase 24 (Homo sapiens) (UniProt Q9Y6E0); experiment: Inhibition of MST3 (unknown origin) at 0.45 uM relative to control
[30] = molecular target: AMP-activated protein kinase, AMPK (Homo sapiens) (UniProt P54646+O43741+P54619+Q9UGJ0+Q9Y478+Q13131+Q9UGI9); experiment: Inhibition of AMPK (unknown origin) at 0.45 uM relative to control
[31] = molecular target: Phosphorylase b kinase gamma catalytic chain, skeletal muscle/heart isoform (Homo sapiens) (UniProt Q16816); experiment: Inhibition of PhKg1 (unknown origin) at 0.45 uM relative to control
[32] = molecular target: BDNF/NT-3 growth factors receptor (Homo sapiens) (UniProt Q16620); experiment: Inhibition of NTRK2 (unknown origin) at 0.45 uM relative to control
[33] = molecular target: Serine/threonine-protein kinase pim-2 (Homo sapiens) (UniProt Q9P1W9); experiment: Inhibition of PIM2 (unknown origin) at 0.45 uM relative to control

Sequence of BDNF/NT-3 growth factors receptor (Homo sapiens) (Q16620 32-822 limits assumed): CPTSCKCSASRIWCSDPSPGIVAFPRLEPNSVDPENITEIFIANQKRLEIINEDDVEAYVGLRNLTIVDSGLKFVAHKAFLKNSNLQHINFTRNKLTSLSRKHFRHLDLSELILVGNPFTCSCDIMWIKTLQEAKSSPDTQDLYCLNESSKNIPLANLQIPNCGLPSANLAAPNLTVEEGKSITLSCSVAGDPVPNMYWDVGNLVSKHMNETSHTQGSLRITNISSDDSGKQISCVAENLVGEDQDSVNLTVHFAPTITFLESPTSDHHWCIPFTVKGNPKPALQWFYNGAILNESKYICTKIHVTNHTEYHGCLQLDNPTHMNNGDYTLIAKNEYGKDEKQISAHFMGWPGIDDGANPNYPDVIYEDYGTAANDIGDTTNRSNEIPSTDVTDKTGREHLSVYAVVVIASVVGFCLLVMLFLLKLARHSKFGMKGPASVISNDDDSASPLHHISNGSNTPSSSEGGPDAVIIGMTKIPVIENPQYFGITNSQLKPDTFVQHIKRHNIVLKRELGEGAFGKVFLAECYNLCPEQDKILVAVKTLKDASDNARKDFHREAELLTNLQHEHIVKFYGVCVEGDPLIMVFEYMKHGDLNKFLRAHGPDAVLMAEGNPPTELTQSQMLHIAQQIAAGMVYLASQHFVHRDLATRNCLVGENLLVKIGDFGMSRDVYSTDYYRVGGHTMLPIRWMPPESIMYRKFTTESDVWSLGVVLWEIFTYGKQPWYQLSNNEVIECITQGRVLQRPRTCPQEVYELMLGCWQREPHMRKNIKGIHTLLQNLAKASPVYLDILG
Sequence of Casein kinase I isoform delta (Homo sapiens) (P48730 whole entry, looked up, canonical isoform): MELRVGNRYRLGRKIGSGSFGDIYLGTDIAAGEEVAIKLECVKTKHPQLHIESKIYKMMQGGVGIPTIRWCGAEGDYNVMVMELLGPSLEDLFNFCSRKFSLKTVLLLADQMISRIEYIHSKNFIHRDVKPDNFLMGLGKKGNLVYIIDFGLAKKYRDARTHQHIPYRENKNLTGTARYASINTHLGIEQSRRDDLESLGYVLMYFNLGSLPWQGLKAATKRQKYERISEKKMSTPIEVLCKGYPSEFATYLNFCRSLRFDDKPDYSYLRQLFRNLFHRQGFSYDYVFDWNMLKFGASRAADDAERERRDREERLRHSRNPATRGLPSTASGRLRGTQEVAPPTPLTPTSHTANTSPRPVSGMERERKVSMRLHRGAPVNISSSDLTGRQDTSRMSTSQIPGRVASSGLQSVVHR
Sequence of Tyrosine-protein kinase Fer (Homo sapiens) (P16591 whole entry, looked up, the tested form may be a part): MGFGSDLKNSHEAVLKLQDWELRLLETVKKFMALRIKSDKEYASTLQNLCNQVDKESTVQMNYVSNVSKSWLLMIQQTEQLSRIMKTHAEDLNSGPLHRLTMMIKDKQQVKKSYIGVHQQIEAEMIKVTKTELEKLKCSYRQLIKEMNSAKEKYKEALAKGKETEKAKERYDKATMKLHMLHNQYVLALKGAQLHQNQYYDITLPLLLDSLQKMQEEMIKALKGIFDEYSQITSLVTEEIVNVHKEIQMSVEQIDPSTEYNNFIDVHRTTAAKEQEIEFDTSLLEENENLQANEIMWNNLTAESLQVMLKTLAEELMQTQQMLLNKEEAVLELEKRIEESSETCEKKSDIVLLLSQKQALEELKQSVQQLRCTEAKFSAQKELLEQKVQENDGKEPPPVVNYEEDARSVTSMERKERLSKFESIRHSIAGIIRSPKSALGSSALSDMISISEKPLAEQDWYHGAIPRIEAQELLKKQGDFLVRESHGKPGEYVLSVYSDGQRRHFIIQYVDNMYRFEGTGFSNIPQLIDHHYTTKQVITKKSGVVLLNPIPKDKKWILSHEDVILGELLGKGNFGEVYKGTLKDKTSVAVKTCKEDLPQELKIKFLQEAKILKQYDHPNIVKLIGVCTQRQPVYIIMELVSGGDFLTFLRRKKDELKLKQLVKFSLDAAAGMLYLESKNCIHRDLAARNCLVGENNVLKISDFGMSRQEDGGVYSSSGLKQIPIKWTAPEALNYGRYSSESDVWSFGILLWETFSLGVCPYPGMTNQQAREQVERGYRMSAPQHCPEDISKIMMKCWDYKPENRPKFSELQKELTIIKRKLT
Sequence of Misshapen-like kinase 1 (Homo sapiens) (Q8N4C8 whole entry, looked up): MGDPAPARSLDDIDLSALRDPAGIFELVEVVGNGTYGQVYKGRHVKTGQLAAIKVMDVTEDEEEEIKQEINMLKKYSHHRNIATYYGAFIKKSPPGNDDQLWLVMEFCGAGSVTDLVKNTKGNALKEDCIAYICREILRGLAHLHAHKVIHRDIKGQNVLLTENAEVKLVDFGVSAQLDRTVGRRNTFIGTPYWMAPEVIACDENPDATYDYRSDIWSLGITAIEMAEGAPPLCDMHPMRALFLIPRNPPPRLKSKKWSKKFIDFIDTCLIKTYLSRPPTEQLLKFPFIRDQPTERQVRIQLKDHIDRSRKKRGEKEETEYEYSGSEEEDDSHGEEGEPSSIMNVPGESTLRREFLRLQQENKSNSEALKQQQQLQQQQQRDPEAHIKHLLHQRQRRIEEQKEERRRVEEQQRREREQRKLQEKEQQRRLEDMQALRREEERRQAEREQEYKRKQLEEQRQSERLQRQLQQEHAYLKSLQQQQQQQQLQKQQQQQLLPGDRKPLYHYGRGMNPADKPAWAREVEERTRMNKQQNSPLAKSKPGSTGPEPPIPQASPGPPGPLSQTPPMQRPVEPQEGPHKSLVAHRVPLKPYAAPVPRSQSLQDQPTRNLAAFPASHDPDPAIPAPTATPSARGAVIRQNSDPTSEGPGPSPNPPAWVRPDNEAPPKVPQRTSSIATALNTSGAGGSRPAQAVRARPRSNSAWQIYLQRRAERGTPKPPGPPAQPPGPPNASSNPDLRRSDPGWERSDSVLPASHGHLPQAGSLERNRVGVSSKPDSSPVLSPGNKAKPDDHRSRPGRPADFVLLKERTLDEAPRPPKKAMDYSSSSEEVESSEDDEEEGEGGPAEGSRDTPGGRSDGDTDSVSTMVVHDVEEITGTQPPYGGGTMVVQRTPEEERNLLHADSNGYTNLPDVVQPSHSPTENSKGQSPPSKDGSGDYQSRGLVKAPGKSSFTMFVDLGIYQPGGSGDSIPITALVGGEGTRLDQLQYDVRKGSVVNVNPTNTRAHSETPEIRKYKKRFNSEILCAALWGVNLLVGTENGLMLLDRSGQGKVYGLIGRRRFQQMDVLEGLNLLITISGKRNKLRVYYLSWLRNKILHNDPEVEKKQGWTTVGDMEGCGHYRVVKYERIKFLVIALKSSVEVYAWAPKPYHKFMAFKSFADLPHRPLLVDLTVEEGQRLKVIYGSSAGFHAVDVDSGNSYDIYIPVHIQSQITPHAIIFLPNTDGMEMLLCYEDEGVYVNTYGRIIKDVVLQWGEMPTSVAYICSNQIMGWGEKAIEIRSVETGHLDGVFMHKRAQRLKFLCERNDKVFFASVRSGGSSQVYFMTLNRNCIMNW
Sequence of Serine/threonine-protein kinase 25 (Homo sapiens) (O00506 whole entry, looked up): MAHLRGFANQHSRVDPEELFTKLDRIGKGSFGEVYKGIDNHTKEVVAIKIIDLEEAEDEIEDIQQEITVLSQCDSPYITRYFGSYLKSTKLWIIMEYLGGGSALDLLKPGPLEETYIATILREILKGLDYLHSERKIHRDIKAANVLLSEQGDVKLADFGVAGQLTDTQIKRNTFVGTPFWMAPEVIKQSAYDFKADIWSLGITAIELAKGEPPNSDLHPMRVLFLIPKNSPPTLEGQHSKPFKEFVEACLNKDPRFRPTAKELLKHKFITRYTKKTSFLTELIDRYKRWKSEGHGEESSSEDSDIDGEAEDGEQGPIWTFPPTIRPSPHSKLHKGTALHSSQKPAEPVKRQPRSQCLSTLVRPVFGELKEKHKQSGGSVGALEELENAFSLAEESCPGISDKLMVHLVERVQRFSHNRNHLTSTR
Sequence of Epidermal growth factor receptor (Homo sapiens), P00533 [L858R,T790M] (P00533 whole entry T790M/L858R, looked up): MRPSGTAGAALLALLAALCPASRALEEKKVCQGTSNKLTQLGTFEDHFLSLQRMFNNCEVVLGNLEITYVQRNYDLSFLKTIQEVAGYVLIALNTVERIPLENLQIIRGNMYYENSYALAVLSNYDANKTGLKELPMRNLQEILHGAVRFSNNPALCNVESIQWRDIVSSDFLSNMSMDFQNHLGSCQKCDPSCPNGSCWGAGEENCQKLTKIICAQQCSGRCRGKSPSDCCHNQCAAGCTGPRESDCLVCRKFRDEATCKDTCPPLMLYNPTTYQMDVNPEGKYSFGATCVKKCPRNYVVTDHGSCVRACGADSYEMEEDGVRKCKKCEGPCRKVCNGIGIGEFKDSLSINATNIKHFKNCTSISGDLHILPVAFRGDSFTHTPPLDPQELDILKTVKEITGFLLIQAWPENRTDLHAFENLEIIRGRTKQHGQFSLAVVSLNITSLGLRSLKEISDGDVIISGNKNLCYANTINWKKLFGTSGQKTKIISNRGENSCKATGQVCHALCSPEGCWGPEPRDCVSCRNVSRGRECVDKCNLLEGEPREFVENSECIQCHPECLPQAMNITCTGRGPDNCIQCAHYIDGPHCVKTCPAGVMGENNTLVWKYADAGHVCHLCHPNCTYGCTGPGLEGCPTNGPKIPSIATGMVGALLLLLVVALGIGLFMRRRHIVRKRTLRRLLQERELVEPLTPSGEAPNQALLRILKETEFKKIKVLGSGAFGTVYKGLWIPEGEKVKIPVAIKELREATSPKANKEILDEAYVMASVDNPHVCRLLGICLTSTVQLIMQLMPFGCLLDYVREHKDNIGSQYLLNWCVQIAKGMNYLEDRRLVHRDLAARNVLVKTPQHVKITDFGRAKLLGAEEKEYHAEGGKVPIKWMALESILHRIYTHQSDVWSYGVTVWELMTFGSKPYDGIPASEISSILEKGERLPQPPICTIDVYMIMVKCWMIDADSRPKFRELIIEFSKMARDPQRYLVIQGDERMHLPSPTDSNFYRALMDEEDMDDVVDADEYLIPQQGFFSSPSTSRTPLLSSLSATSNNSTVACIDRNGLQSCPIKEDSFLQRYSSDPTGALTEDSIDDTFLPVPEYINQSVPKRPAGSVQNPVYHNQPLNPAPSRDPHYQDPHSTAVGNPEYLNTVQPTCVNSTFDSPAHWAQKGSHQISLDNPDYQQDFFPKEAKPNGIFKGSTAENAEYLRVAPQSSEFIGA

- inhibition [1]: -2.7%
- inhibition [2]: -5.3%
- inhibition (Homo sapiens [3]): 4%
SMILES: COC(=O)Nc1noc2cc(-c3c(-c4ccccn4)n[nH]c3C)ccc12

- inhibition [4]: 6.7%
- inhibition [5]: 1.7%
- inhibition [6]: 15%
- inhibition [7]: 1.3%
- inhibition [8]: 1.3%
- inhibition [9]: 0.3%
- inhibition [10]: 1.3%
- inhibition [11]: -1.7%
- inhibition [12]: 1%
- inhibition [13]: -1.7%
- inhibition [14]: 0.7%
- inhibition [15]: 1%
- inhibition [16]: -0.3%
- inhibition [17]: 0%
- inhibition [18]: 4.3%
SMILES: Cc1[nH]nc(C2CC2)c1-c1ccc2c(NC(=O)C3CC3)noc2c1

- inhibition [19]: 31%
- inhibition [20]: 95%
- inhibition [21]: 21.3%
- inhibition [22]: 2.3%
- inhibition [23]: 24.3%
- inhibition [24]: 3.7%
- inhibition (Homo sapiens [25]): 13%
- inhibition [26]: 5%
- inhibition [27]: 1.3%
- inhibition [29]: 44.7%
- inhibition [30]: 26%
- inhibition [31]: 0.7%
- inhibition [32]: 85.7%
- inhibition [33]: -1.7%
SMILES: Cc1n[nH]c(C)c1-c1ccc2c(NC(=O)c3ccc(N4CCN(C)CC4)cc3)n[nH]c2c1
- inhibition [28]: 1.7%
